Source: US5372944A, “Method for conversion of halogenated hydrocarbons to halohydrins” (The Dow Chemical Company, priority 1993, dated 1994)

Key:
[1] = system: TDTM-003-60-2-11; test: Dehalogenation by double mutant strain TDTM-003-60-2-11 in shake flask with bulb feeder; format: cell-based, Rhodococcus sp.; conditions: for halohydrin accumulated in culture broth: after 120 hours; for overall rate of halohydrin production: 28° C., 150 rpm, substrate from bulb feeder
From the text: (§1) For gas chromatography (GC) analysis of halogenated metabolites, cultures were centrifuged briefly to remove cells, saturated with sodium sulfate, and an equivalent volume of methylene chloride added. The suspension was vortexed vigorously, centrifuged to break the emulsion and the methylene chloride phase removed.
(§2) Analysis of all halocarbon substrates and products from culture broths was done by GC using a Hewlett Packard 5710 equipped with a 7671A Autoinjector with the following protocol:
Dehalogenation of 1,2-dichloropropane by the double mutant strain of Rhodococcus sp., designated TDTM-003-60-2-11 was assayed in the following manner: 5 mL of an overnight culture (16 hours) were used as inoculum for 50 mL MM1X4P containing 5 g/L disodium succinate in a 250 mL flask. At 4 and 8 hours growth, 10 μL of 1-chlorobutane was added to induce the dehalogenase enzyme. Following 24 hours of growth, cells were harvested by centrifugation, resuspended into 50 mL of fresh MM1X4P, and transferred to a sterile 250 mL shake flask equipped with a bulb feeder. To the bulb feeder was added 1,2-dichloropropane and incubation continued at 28° C. and 150 rpm. […] The production of halohydrin products was monitored by gas chromatography. 1 -Chloro-2-propanol and 2-chloro-1-propanol accumulate linearly in the culture broth to 74 parts-per-million (ppm) (w/v) and 20 ppm (w/v) respectively after 120 hours. The overall rate of halohydrin production is 0.60 mg/g dry cells/hr.
The procedure described in Example 6 was followed except 1,2-dichlorobutanereplaced 1-chlorobutane in the bulb feeder.
The procedure described in Example 6 was followed except 1,2,3-trichloropropane replaced 1-chlorobutane in the bulb feeder.

[2] = target: partially purified TDTM-003 dehalogenase (Rhodococcus sp. TDTM0003, UniProt P59336); test: Substrate profile of partially purified TDTM-003 dehalogenase; format: biochemical, Rhodococcus species TDTM-003; conditions: corrected for non-enzymatic hydrolysis
partially purified TDTM-003 dehalogenase, sequence (P59336 whole entry): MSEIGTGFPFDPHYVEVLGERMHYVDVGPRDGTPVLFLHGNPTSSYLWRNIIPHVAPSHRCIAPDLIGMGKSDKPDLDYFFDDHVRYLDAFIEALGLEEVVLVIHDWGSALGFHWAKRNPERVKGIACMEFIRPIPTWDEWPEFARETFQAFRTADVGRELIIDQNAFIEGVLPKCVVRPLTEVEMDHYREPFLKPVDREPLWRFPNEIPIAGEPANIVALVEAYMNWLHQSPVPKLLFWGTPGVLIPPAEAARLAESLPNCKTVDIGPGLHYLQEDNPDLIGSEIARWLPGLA
Description: (§3) Hydrolytic dehalogenase enzyme activity was evaluated by adding an appropriate amount of cell free extract or enzyme preparation to 5.0 mL of 100 mM glycine buffer, pH=9.0 in a 7 mL glass vial. The halogenated substrate (5.0 μl) and a small stir bar were added, and the vial capped. Reaction was initiated by transfer to a 30° C. water bath equipped with a magnetic stirrer. Periodically 1.0 mL samples were removed and assayed for free halide. Rates were determined after correcting for non-enzymatic hydrolysis with an appropriate blank. A standard curve was prepared using sodium chloride.
Frozen pellets from 2 liters of culture were thawed into 150 mL of 10 mM Tris sulfate buffer, pH=7.5 containing 1 mM disodium EDTA. This buffer was used throughout the entire purification. The suspension was sonicated for approximately 1 hour with ice cooling using a Microson Ultrasonic Cell Disrupter and centrifuged at 10,000 rpm for 15 minutes to remove cell debris. Supernatant was removed and the sonication/centrifugation repeated with fresh buffer to increase enzyme yield. Overall sonication efficiency was monitored by absorbence at 280 nm. Cell free extracts were combined and brought slowly to 30 percent saturation with solid ammonium sulfate. The suspension was centrifuged at 10,000 rpm for 30 minutes and the pellet discarded. The supernatant was brought to 70 percent saturation with solid ammonium sulfate and centrifugation repeated. Supernatant was discarded and the pellet taken up in a small volume of buffer and dialyzed overnight against 1 liter of the same. The preparation was applied to a 1.5×15cm column of DEAE-Sephadex equilibrated with the same buffer elution carried out with a 1 liter gradient from 0 to 400 mM ammonium sulfate. Fractions of about 7-8 mLs were collected. The active fractions were pooled and brought to 90 percent saturation with ammonium sulfate. The pellet was taken up in a minimal amount of buffer, ultrafiltered to 2.5 mL using 10,000 MWCO Novacell Ultrafiltration cell, and applied to a 1.5×90 cm Sephadex G-100 column. Elution was by gravity at 90 cm and fractions of 7-8 mLs were collected. Active fractions were poled, brought to 30 percent saturation with ammonium sulfate, and applied to a 10 ml column of Butyl-agarose equilibrated in the same. Elution was performed with a 500 mL gradient from 30 percent-0 percent ammonium sulfate. Active fractions were pooled, dialyzed and used for substrate selectivity studies.
To evaluate the substrate selectivity of haloalkane dehalogenase from isolated Rhodococcus species, an enzyme preparation from the strain designated TDTM-003 was purified by the procedure described under General Experimental. This preparation provided a dehalogenase which was approximately 50 percent pure as estimated by SDS-PAGE and was free of interfering halohydrin dehalogenase activity.
The activity of this partially purified TDTM-003 dehalogenase preparation was evaluated against various chlorinated and brominated substrates. Each enzymatic rate was corrected for non-enzymatic hydroloysis.

[3] = system: double mutants lacking both ADH and halohydrin dehalogenase activity; test: Whole cell conversion of DCP, DCB and TCP by double mutants: kinetics, selectivity, enantioselectivity; format: cell-based, Rhodococcus species; conditions: double mutants grown on succinate, induced with 1-chlorobutane
Description: To evaluate kinetics and selectivity of various mutants with respect to conversion of the target halocarbons, 1,2-dichloropropane (DCP), 1,2-dichloro-butane (DCB) and 1,2,3-trichloropropane (TCP) cultures were first inoculated from slants into 25 mL nutrient media in a 125 mL flask and grown overnight. Five mL were inoculated into 50 mL of MM1X4P containing 5 g/L disodium succinate in a 250 mL flask. Following 4 hours of growth and again at 8 hours, 10 μl of 1-chlorobutane was added for induction of the dehalogenase. Following 24 hours growth, cells were harvested by centrifugation and resuspended into 50 mL of fresh sterile MM1X4P and transferred to a sterile 250 mL shake flask equipped with a bulb feeder as described by Gibson, et al., supra. DCP, DCB, and TCP were added to bulb feeders and reaction progress monitored by gas chromatography (GC). Throughout the protocol, volumes were modified as needed to provide higher concentrations of cells and/or to provide identical batches of induced cells for comparative studies.
as §1, §2
Analysis for optical activity of microbially produced 2,3-dichloro-1-propanol was determined independently using two methods. […] Enantiomeric composition of DCP, DCB, and respective halohydrins can also be monitored using a derivatized cyclodexdrin gas chromatography column (CHIRALDEX™ type B-TA Column, Advanced Separation Technologies, Inc.). Enantiomeric excess was determined by a comparison of peak areas.
The double mutants were evaluated for conversion of DCP, DCB, and TCP following growth on succinate in the presence of 1-chlorobutane as an inducer of the dehalogenase. […]

[4] = system: dehalogenase in cell free extracts of Rhodococcus Rhodochrous, TDTM-003; test: Primary screen of dehalogenase activity in cell free extracts of TDTM-003; format: biochemical
Description: Following overnight growth, 50 μl of 1-chlorobutane was added to induce the dehalogenase. After 24 hours induction, cells were harvested by centrifugation, resuspended in cold 10mM Tris sulfate/1 mM disodium EDTA, pH=7.5, and disrupted by sonication. Cell debris was removed by centrifugation at 10,000 rpm for 30 minutes, cell free extracts dialyzed overnight against the same buffer, and assayed without dilution for dehalogenase activity.
Free chloride or bromide was assayed qualitatively using a chloride electrode (Orion), or quantitatively using the colorimetric method (430 nm) described by J. G. Bergmann, et al., Anal. Chem., 29:241-243 (1957).
as §3
Preliminary studies were performed on cell free extracts of TDTM-003 to evaluate the enzyme substrate selectivity, and the results of this study are shown in Table 2.

[5] = system: TDTM-003-60-2-11; test: Utilization of carbon containing compounds for growth in liquid culture, TDTM-003-60-2-11; format: cell-based, Rhodococcus species ATCC 55388;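 further: minus means no visible growth and plus means good growth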
From the text: A representative double mutant designated TDTM-003-60-2-11, made by the above example was deposited at the American Type Culture Collection on Jan. 28, 1993 and given the ATCC designation 55388.

[6] = system: TDTM-003; test: Utilization of carbon containing compounds for growth in liquid culture, TDTM-003; format: cell-based, Rhodococcus species; conditions: liquid culture

Row | Compound | Relative Rate of Halogen Release, 1-Chlorobutane = 100 [2] | Relative Rate of Chloride Release, 1-chlorobutane = 100 [4] | Utilization of carbon source for growth, TDTM-003-60-2-11 [5] | Utilization of carbon source for growth, TDTM-003 [6] | further results
1 | CCC(Cl)CO (stereo not drawn) [2-chloro-1-butanol] |  |  |  |  | halohydrin accumulated in culture broth ([1]; substrate 1,2-dichlorobutane): 265 ppm (w/v)
2 | CCC(Cl)CCl (stereo not drawn) [1,2-dichlorobutane] | 33.000 | 108 |  |  | in vivo rates of conversion [3]: 1.29 mg product/g dry cells/hr; overall rate of halohydrin production [1]: 2.47 mg/g dry cells/hr
3 | OCC(Cl)CCl (stereo not drawn) [2,3-dichloro-1-propane] |  |  | - | + /- | 
4 | CC(O)CCl (stereo not drawn) [1-chloro-2-propanol] |  |  |  |  | halohydrin accumulated in culture broth ([1]; substrate 1,2-dichloropropane): 74 ppm (w/v)
5 | OCC(Cl)CCl (stereo not drawn) [2,3-dichloro-1-propanol] |  |  |  |  | halohydrin accumulated in culture broth ([1]; substrate 1,2,3-trichloropropane): 211 ppm (w/v)
6 | Glycogen |  |  | + | + | 
7 | O=C(O)[C@H](O)[C@@H](O)[C@H](O)[C@H](O)CO [Gluconate] |  |  | ++ | ++ | 
8 | Inulin |  |  | - | - | 
9 | Dextrin |  |  | - | - | 
10 | O=C(O)c1cccc(O)c1 [m-OH Benz] |  |  | - | - | 
11 | CCCCCCCCCl [1-chlorooctane] | 58.000 | 159 |  |  | 
12 | CCC(O)CCl (stereo not drawn) [1-Chloro-2-butanol] |  |  |  |  | halohydrin accumulated in culture broth ([1]; substrate 1,2-dichlorobutane): 6.5 ppm (w/v)
13 | Phenylacetate |  |  | - | + | 
14 | CC(Cl)CCCl (stereo not drawn) [1,3-dichlorobutane] | 81.000 | 63 |  |  | 
15 | O=C[C@H](O)[C@@H](O)[C@H](O)[C@H](O)CO [Glucose] |  |  | + + |  | 
16 | CCC(N)C(=O)O (stereo not drawn) [Aminobutyrate] |  |  | + | + | 
17 | ClCCCCCCl [1,5-dichloropentane] | 173.000 | 112 |  |  | 
18 | O=C(O)c1ccc(O)cc1 [p-OH-Benz] |  |  | - | - | 
19 | ClCC(Cl)CCl [1,2,3-trichloropropane] | 18.000 | 23 |  |  | in vivo rates of conversion [3]: 1.06 mg product/g dry cells/hr; overall rate of halohydrin production [1]: 2.39 mg/g dry cells/hr
20 | OC(CCl)CCl [1,3-dichloro-2-propane] |  |  | - | +/- | 
21 | ClCCCCCCCCCCCl [1,10-dichlorodecane] | 52.000 | 124 |  |  | 
22 | ClCCCCl [1,3-dichloropropane] | 253.000 | 203 |  |  | 
23 | CCCCBr [1-bromobutane] | 265.000 | 362 |  |  | 
24 | CC(Cl)C(C)Cl (stereo not drawn) [2,3-dichlorobutane] | 19.000 | 73 |  |  | 
25 | CC(Cl)CO (stereo not drawn) [2-chloro-1-propanol] |  |  |  |  | halohydrin accumulated in culture broth ([1]; substrate 1,2-dichloropropane): 20 ppm (w/v)
